{"source": "patent US12528803B2", "about": "“Inhibitors of αvβ6 integrin” (Morphic Therapeutic, Inc., priority 2018, dated 2026)", "key": {"[1]": {"tested_on": "Madin-Darby Canine Kidney (MDCK) cells", "test": "MDCK in vitro permeability assay (wild type MDCK cells, no inhibitor)", "assay_type": "in vitro ADME", "settings": "no Pgp inhibitor, apical to basolateral (A→B)", "method": "(§1) Compounds were tested for permeability in an MDCK permeability assay. This assay measures the ability of compounds to cross a layer of Madin-Darby Canine Kidney (MDCK) cells from the apical to basolateral side (A→B). This measurement is predictive of the ability of compounds to be absorbed in the gut following oral dosing, an essential characteristic of an orally administered small molecule integrin inhibitor drug.\n(§2) The assay is run in two formats. One uses wild type MDCK cells with no inhibitor. This method works well in determining the passive permeability of compounds with low efflux by P-glyocprotein (Pgp), and was used to assess permeability of a Reference Compound having the chemical formula shown below.\n(§3) Cell Culture and Maintenance: • Cell stock cultures (MDCK or MDCK MDR1) are maintained in MEM+10% FBS+1% NEAA, grown in 75 cm^2 tissue culture treated flasks and split (passed) 2 times weekly to maintain desired confluence. • For maintenance passage: trypsinized cells are routinely distributed into new flasks at a standard passage ratio of 1:20.\n(§4) Seeding assay plates: MDCK assay plates are seeded with MDCK or MDCK MCR1 cells 3-4 days prior to running the assay. 24-well plates are seeded at a cell density of 0.88×10^5/well in a 400 μL apical chamber volume (2.2×10^5/mL) with a […] volume of growth medium to the 24-well basal chamber. […]"}, "[2]": {"test": "MDCK in vitro permeability assay (wild type MDCK cells, no inhibitor)", "assay_type": "in vitro ADME, Canine", "settings": "dog, no Pgp inhibitor, apical to basolateral (A→B)", "method": "as §1, §2, §3, §4"}}}
{"molecule": "O=C(O)CN1CCC(C(=O)N2CCC(c3ccc4c(n3)NCCC4)CC2)CC1", "note": "[Reference Compound]", "values": [{"measurement": "MDCK (A->B)", "setting": "[1]", "value": "less than 0.23"}, {"measurement": "Papp A→B at 90 min, 5 μM", "setting": "[2]", "value": "< 0.23", "unit": "×10⁻⁶ cm/s"}]}
